Test results: patent publication US7943655B2, “Polymorphic and pseudopolymorphic forms of trandolaprilat, pharmaceutical compositions and methods for production and use” (Universitat Zurich, priority 2006, dated 2011)
Several values for one entry are separate records, joined by “and”; a condition that tells them apart may be missing. Equal values may be shown once.

Key:
[1] = Storage stability of crystalline forms (decomposition to Trandolaprilat diketopiperazine, by HPLC); type: physicochemical; conditions: for Amount of Trandolaprilat Diketopiperazine after Isolation and Drying of the Wet Product: before storage; for Tendency to decompose to Trandolaprilat Diketopiperazine on storage (in words): comparison of crystalline forms, Table 9
Description: Purity was determined by HPLC using a Luna C18 (150×4.6 mm, 3 μm; Manufacturer: Phenomenex, Torrence, Calif., USA) column, as well as a Symmetry C18(2) (150×4.6 mm, 3.5 μm; Manufacturer: Waters Corporation, Millford, Mass., USA) column using as mobile phase: Mobile phase A: 0.03% v/v of trifluoroacetic acid in water; Mobile phase B: 0.025% v/v of trifluoroacetic acid in acetonitrile; column temperature 30° C., flow rate: 1.5 ml/min, detection: UV 206 nm; eluent gradient: […]

[2] = Degradation to Trandolaprilat diketopiperazine in non-hydroxylic solvent (THF solution); type: physicochemical
Description: Furthermore, crystallization and precipitation from non-hydroxylic solvents often provided a resin that could only be difficultly handled.

[3] = Solubility in n-butanol with and without water; type: physicochemical
Description: In step (f), an amount of water is removed from the solution of step (e) that is sufficient for inducing crystallization of the Trandolaprilat and provide crystalline Trandolaprilat in a polymorphic or pseudopolymorphic form. Because Trandolaprilat is not soluble in anhydrous n-butanol, its crystallization from the organic layer can be initiated by removing the water, for example, by concentrating an n-butanol/water solution containing the Trandolaprilat using azeotropic distillation (to provide crystalline Trandolaprilat).

[4] = target: Angiotensin Converting Enzyme (ACE enzyme) (Homo sapiens, UniProt P12821); conditions: compared with Trandolapril; cited from earlier work
Chain of Angiotensin Converting Enzyme (ACE enzyme) (P12821 30-1306, species assumed): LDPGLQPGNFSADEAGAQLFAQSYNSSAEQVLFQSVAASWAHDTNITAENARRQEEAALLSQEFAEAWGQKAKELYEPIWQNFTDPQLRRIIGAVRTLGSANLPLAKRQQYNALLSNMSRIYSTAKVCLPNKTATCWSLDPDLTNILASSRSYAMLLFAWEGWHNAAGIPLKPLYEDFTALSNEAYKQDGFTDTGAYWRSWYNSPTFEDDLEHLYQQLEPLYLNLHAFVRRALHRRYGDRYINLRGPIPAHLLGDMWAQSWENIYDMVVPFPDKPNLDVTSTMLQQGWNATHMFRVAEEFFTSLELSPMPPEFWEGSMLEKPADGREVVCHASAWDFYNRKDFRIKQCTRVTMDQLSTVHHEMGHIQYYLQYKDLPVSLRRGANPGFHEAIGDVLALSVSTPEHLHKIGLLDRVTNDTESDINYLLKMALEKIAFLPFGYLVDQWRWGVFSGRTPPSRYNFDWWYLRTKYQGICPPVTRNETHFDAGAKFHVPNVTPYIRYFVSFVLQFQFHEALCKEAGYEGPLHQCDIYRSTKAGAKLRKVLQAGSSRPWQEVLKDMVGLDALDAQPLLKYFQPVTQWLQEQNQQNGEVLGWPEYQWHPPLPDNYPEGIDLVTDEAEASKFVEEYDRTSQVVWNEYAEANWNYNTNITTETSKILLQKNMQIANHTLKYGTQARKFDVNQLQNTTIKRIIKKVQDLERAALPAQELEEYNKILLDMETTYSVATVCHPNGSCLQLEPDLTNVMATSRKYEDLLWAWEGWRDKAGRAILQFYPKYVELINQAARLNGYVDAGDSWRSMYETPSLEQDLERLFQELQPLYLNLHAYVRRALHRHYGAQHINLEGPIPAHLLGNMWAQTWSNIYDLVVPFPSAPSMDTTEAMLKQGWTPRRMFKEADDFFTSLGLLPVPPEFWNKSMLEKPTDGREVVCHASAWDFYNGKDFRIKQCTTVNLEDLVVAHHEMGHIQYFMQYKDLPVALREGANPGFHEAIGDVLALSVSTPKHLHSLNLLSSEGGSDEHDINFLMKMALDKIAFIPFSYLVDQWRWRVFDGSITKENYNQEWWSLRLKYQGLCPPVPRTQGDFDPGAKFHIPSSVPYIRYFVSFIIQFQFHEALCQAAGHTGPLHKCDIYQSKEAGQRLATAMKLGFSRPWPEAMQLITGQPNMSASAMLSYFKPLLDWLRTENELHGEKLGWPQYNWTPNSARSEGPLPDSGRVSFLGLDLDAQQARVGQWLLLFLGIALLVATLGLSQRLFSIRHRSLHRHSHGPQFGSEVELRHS

[5] = storage temperature 20-25, storage time 4 months

Compound	Amount of Trandolaprilat Diketopiperazine after Isolation and Drying of the Wet Product [1]	Tendency to decompose to Trandolaprilat Diketopiperazine on storage (in words) [1]	Amount of Trandolaprilat Diketopiperazine after Storage [1, 5]	Amount of Trandolaprilat Diketopiperazine after Storage ([1]; storage temperature 4-8, storage time 3 months)	Amount of Trandolaprilat Diketopiperazine after Storage ([1]; storage temperature 20-25, storage time 3 months)	Formation of degradation product Trandolaprilat diketopiperazine ([2]; THF solution heated at reflux temperature)	Rate of degradation to Trandolaprilat diketopiperazine ([2]; dissolved in THF, room temperature)	Solubility ([3]; anhydrous n-butanol)	Solubility ([3]; free amino acid form, n-butanol saturated with water)	Potency as an inhibitor of ACE activity relative to Trandolapril [4]
C[C@H](N[C@@H](CCc1ccccc1)C(=O)O)C(=O)N1[C@H](C(=O)O)C[C@H]2CCCC[C@@H]21 [Form A, Trandolaprilat]	Not Detected	only a very low quantity of the degradation product	0.02 % by HPLC							
C[C@H](N[C@@H](CCc1ccccc1)C(=O)O)C(=O)N1[C@H](C(=O)O)C[C@H]2CCCC[C@@H]21 [Form B, Trandolaprilat]	Not Detected	significantly lower	0.20 % by HPLC							
C[C@H](N[C@@H](CCc1ccccc1)C(=O)O)C(=O)N1[C@H](C(=O)O)C[C@H]2CCCC[C@@H]21 [Form C, Trandolaprilat]	Not Detected	significantly lower	0.26 % by HPLC							
C[C@H](N[C@@H](CCc1ccccc1)C(=O)O)C(=O)N1[C@H](C(=O)O)C[C@H]2CCCC[C@@H]21 [Form D, Trandolaprilat]	Not Detected	only a very low quantity of the degradation product	0.03 % by HPLC							
C[C@H](N[C@@H](CCc1ccccc1)C(=O)O)C(=O)N1[C@H](C(=O)O)C[C@H]2CCCC[C@@H]21 [Form E, Trandolaprilat]	0.34 %, by HPLC and 0.19 %, by HPLC	greater tendency to decompose		0.75 % by HPLC	0.92 % by HPLC					
C[C@H](N[C@@H](CCc1ccccc1)C(=O)O)C(=O)N1[C@H](C(=O)O)C[C@H]2CCCC[C@@H]21 [Trandolaprilat]						almost complete within a few hours	at least 0.2 % per hour	not soluble	soluble	about eight times more potent than Trandolapril
